Literature values as cited in patent publication US20250195565A1 (Fempharma Europe, LLC, priority 2018, published 2025).

System: human vaginal smooth muscle cells
Conditions: zinc at a tissue level of 20 μM

[Zn] [zinc]
effect on production of extracellular components (collagen, elastin) by the muscle cells: beneficial effect
